The values that follow come from ChEMBL document CHEMBL3580597 (J Med Chem, 2015).

pIC50, pKd, pKi: −log10 of the molar value. Bounds are passed on as bounds.

What is called pKd is the negative decadic logarithm of the Kd, by convention in mol/L. As a reminder, the pIC50 is −log10 of the IC50, conventionally taken in molar units. The pKi is the negative decadic logarithm of the Ki, by convention in mol/L. Lower therefore signals a large Ki.

In assay [1] the target is T1, ATPase family AAA domain-containing protein 2B (Homo sapiens, UniProt Q9ULI0).
T1 sequence (Q9ULI0 whole entry): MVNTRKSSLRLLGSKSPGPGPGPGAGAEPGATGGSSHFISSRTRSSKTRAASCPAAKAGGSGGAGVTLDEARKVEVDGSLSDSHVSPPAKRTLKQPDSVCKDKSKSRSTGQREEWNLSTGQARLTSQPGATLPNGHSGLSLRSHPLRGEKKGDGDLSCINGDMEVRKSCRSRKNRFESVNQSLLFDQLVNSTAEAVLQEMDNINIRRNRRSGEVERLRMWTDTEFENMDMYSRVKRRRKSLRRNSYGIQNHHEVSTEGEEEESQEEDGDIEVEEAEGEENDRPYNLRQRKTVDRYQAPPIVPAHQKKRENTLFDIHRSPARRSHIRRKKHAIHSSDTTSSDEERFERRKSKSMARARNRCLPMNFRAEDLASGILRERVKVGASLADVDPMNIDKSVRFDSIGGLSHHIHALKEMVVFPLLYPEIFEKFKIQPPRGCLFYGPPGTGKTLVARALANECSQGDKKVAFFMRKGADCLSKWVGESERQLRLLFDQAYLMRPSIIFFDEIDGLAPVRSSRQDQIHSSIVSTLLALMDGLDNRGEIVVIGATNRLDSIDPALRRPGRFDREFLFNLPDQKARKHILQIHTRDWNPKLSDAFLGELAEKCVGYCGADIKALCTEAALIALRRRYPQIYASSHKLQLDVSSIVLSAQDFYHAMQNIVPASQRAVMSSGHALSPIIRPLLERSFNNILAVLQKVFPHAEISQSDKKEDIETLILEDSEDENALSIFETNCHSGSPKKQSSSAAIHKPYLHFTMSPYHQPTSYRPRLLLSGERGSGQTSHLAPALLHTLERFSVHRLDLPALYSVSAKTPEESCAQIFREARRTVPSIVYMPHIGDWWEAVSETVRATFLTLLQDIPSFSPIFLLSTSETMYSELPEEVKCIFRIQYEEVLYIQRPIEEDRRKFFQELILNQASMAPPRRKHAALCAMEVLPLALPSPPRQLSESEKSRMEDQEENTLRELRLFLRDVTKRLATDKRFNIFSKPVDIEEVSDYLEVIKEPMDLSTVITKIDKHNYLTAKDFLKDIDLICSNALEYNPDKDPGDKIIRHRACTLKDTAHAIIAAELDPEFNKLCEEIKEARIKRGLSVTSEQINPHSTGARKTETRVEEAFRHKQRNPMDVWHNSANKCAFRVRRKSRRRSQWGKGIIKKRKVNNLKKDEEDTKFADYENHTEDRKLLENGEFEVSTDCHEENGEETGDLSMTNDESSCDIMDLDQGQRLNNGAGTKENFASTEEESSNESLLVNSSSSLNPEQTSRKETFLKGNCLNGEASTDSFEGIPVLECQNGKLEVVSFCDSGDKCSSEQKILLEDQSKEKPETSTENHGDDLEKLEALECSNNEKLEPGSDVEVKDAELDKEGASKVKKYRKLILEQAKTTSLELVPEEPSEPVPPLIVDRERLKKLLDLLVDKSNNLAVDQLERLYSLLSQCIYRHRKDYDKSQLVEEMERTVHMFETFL
Nature of the assay: Binding affinity to biotinylated ATAD2B (953 to 1086 amino acid residues) (unknown origin) expressed in Rosetta2 DE3 cells by bio-layer interferometry method. (Biolayer interferometry detects binding as a change in optical thickness at a sensor tip.)

The next assay relates to MV4-11. Nature of the assay: cells. Particulars: Homo sapiens, MV4-11, 96 h. Format: functional, cell-based.
The target of assay [2] is Bromodomain-containing protein 2 (Homo sapiens, UniProt P25440). Nature of the assay: Displacement of FAM-labeled ZBA248 from BRD2 BD2 (349 to 460 amino acid residues) (unknown origin) expressed in Rosetta2 DE3 cells after 30 mins by fluorescence polarization assay.
Chain of Bromodomain-containing protein 2 (P25440 whole entry, the tested form may be a part): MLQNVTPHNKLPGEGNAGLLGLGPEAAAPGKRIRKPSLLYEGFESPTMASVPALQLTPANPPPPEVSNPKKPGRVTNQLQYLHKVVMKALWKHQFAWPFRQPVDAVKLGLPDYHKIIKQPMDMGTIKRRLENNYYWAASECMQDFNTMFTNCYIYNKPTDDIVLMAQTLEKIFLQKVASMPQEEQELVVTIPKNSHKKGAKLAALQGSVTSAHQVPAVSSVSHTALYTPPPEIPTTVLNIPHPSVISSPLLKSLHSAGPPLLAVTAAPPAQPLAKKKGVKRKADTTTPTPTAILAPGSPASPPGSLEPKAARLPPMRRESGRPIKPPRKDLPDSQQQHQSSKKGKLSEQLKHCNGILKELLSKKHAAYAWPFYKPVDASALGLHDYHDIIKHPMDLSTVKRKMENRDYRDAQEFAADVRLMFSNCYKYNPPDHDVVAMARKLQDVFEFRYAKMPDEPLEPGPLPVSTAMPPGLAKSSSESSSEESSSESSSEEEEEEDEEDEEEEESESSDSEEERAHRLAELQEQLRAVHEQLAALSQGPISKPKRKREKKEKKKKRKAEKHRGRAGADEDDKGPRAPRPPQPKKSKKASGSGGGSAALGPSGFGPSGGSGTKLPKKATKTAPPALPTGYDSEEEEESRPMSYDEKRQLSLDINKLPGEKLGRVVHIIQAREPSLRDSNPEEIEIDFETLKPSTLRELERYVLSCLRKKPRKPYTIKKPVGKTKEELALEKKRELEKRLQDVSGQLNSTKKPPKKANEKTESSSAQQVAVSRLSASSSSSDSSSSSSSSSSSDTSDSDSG
Assay [3] deals with T2, Bromodomain-containing protein 4 (Homo sapiens, UniProt O60885). Nature of the assay: Displacement of FAM-labeled ZBA248 from BRD4 BD2 (333 to 460 amino acid residues) (unknown origin) expressed in Rosetta2 DE3 cells after 30 mins by fluorescence polarization assay. (In general: Fluorescence polarisation rises when a labelled molecule tumbles more slowly, as on binding a larger partner.)

Assay [4] addresses T2, Bromodomain-containing protein 4. The experiment in a line: biochemical.
The subject of a further assay is K562. Nature of the assay: cells. In kind it is functional, cell-based. The note with it: Homo sapiens, K562, 96 h.
Assay [5] has as its target T3, Transcription intermediary factor 1-alpha (Homo sapiens, UniProt O15164).
T3 sequence (O15164 whole entry): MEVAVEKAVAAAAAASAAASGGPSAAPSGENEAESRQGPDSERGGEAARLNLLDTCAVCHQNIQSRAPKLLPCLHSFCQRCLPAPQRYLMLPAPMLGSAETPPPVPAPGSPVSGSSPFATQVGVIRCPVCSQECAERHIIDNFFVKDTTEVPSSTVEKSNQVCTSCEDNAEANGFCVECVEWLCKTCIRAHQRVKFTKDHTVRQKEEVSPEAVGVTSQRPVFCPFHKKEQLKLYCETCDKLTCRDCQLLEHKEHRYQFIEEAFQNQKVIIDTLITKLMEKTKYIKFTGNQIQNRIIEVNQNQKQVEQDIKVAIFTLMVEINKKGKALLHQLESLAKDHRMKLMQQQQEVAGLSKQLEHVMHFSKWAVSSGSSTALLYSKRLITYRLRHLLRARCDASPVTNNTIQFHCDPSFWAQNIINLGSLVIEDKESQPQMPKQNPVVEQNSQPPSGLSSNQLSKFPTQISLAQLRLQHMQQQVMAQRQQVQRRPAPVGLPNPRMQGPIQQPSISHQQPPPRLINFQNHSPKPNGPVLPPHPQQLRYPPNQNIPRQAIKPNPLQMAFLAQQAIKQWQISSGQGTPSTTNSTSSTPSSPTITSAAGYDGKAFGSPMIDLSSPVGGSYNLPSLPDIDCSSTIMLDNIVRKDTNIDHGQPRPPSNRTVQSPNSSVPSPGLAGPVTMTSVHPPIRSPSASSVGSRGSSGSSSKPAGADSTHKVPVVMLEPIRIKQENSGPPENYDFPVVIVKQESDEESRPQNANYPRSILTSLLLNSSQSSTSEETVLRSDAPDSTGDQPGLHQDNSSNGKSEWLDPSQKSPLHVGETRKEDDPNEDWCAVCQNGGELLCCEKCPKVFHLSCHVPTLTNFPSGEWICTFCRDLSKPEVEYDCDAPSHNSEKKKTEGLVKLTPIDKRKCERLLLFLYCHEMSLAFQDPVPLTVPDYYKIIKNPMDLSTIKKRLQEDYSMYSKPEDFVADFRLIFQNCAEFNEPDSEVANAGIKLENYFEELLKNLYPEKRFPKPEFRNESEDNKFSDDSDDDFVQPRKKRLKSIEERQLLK
The experiment in a line: Binding affinity to biotinylated TRIM24 (790 to 972 amino acid residues) (unknown origin) expressed in Rosetta2 DE3 cells by bio-layer interferometry method.

The target in assay [6] is Bromodomain adjacent to zinc finger domain protein 2B (Homo sapiens, UniProt Q9UIF8). The experiment in a line: Binding affinity to biotinylated BAZ2B (2054 to 2168 amino acid residues) (unknown origin) expressed in Rosetta2 DE3 cells by bio-layer interferometry method.
Chain of Bromodomain adjacent to zinc finger domain protein 2B (Q9UIF8 whole entry, the tested form may be a part): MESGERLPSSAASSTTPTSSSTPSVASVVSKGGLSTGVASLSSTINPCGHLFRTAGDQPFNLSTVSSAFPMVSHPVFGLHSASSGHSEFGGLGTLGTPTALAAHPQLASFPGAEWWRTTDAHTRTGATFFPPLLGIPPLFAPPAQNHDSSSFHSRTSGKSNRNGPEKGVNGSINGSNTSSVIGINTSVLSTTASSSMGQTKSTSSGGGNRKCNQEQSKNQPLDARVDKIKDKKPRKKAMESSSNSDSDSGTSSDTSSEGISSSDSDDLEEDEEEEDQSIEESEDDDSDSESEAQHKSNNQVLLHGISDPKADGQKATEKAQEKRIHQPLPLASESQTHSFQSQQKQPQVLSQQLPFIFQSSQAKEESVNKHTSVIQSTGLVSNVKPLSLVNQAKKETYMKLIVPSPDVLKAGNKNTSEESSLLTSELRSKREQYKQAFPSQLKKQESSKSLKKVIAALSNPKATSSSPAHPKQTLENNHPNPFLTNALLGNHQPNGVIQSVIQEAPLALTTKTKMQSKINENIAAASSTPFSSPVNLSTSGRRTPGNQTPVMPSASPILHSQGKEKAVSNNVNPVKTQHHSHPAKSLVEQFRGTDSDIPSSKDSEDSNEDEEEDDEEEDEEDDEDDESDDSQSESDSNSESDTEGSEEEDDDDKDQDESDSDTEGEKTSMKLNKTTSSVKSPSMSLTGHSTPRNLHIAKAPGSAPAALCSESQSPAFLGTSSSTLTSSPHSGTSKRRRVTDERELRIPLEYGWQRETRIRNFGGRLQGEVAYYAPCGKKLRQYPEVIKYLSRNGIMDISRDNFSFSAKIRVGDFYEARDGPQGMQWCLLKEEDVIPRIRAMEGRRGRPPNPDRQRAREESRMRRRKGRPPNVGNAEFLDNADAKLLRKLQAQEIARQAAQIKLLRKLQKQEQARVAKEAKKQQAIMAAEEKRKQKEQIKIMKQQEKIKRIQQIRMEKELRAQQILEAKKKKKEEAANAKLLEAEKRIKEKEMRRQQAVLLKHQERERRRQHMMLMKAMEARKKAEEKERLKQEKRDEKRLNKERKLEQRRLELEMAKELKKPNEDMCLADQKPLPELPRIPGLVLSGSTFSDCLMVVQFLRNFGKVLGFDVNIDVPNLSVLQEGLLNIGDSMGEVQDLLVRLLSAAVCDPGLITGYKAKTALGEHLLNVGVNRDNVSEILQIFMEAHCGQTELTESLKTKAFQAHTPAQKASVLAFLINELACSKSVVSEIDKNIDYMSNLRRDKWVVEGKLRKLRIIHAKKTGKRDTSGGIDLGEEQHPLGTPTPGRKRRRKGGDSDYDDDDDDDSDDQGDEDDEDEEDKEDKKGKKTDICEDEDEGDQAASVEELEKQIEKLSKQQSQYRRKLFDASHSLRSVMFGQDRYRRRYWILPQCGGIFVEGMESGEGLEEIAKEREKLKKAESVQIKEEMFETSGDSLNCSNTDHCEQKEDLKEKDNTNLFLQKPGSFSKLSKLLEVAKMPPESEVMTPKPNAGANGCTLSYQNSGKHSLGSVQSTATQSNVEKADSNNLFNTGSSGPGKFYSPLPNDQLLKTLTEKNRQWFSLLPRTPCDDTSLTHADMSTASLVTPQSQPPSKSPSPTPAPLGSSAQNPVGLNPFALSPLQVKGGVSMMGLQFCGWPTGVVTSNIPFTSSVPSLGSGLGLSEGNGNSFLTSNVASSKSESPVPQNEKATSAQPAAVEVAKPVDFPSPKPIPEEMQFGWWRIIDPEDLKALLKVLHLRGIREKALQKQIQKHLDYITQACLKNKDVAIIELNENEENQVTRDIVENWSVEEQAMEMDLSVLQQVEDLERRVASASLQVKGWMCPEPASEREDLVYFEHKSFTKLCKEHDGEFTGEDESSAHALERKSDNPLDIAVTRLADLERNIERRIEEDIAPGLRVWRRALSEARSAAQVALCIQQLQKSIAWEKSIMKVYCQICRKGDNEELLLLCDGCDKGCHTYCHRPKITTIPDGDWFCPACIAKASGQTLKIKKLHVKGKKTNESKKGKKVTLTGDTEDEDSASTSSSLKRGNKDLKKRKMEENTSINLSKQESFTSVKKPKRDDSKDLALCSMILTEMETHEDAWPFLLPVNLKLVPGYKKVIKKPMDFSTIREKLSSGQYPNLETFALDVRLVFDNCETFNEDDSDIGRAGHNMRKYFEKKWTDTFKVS

Take `COc1cc2c(cc1-c1c(C)noc1C)[nH]c1ccnc(-c3c(C4CC4)n[nH]c3C)c12`: the pKd in assay [1] was under 5.00; in assay [4] it was 7.35; in assay [5] it was 5.00; in assay [6], under 5.00. The pIC50 is 7.70 in the assay with MV4-11, 7.44 in assay [3] and under 5.70 in the assay with K562. Also, the pKi in assay [2] was 7.93; in assay [3], 7.91.
